How the values were obtained:
KAT5 = target: T1, KAT5 (Homo sapiens, UniProt Q92993); assay: KAT5 enzyme inhibition assay (SAMDI mass spectrometry); assay type: biochemical; settings: His-TEV-FL KAT5-Flag enzyme construct
T1 construct: His-TEV tag (N, cleaved yes); made in house

KAT6A = target: T2, KAT6A (Homo sapiens, UniProt Q92794); assay: KAT6A enzyme inhibition assay (SAMDI mass spectrometry); assay type: biochemical; settings: His-TEV-KAT6A 501-784 enzyme construct
T2 construct: His-TEV tag (N, cleaved yes); made in house
T2 sequence (Q92794 with tags, fused parts or gaps): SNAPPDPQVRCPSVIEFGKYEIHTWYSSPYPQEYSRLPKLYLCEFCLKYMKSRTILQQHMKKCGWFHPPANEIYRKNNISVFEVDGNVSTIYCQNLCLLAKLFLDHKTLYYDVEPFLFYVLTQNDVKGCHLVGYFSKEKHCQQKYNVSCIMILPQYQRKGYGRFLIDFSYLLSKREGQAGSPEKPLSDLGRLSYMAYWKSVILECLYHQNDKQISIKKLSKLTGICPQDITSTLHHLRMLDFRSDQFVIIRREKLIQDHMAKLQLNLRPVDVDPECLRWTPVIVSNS

T1 sequence (Q92993 with tags, fused parts or gaps): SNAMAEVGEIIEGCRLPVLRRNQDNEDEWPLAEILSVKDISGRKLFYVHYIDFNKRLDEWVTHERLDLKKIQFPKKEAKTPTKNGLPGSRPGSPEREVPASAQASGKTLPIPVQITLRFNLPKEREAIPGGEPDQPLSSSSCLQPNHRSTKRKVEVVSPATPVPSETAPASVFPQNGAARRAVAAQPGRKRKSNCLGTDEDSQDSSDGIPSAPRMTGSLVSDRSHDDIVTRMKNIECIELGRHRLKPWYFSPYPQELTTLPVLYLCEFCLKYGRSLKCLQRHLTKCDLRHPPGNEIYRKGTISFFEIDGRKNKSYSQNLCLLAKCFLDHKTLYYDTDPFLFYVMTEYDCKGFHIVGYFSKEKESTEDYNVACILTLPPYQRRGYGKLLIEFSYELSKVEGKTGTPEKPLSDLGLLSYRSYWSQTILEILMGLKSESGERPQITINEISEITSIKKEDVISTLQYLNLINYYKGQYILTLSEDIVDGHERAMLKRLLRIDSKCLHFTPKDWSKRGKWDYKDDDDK

SMILES	IC50 (KAT5)	IC50 (KAT6A)
Cc1cc(-c2cccc(F)c2)cc(C(=O)NNS(=O)(=O)CC2CN(C(=O)OC(C)(C)C)CCO2)c1F (stereo not drawn) [Compound I-425]	≤ 10 µM	≤ 10 µM
Cc1cc(-c2ccccc2)cc(C(=O)NNS(=O)(=O)CC2CNCCO2)c1F (stereo not drawn) [Compound I-426]	10 to 50 µM	≤ 10 µM
COc1cc(Cl)c(F)c(C(=O)NNS(=O)(=O)C2CCOCC2)c1 [Compound I-430]	50 to 100 µM	> 100 µM
COc1cc(Cl)c(F)c(C(=O)NNS(=O)(=O)CC2CCOCC2)c1 [Compound I-431]	10 to 50 µM	50 to 100 µM
CNC(=O)c1cccc(-c2cc(C)c(F)c(C(=O)NNS(=O)(=O)CC3CCCCC3)c2)c1 [Compound I-433]	≤ 10 µM	10 to 50 µM
CN(C)C(=O)c1cc(Cl)c(F)c(C(=O)NNS(=O)(=O)C2CCOCC2)c1 [Compound I-434]	> 100 µM	> 100 µM
CC(=O)N1CCC(S(=O)(=O)NNC(=O)c2cc(Cl)cc(Cl)c2F)CC1 [Compound I-435]	> 100 µM	> 100 µM
O=C(NNS(=O)(=O)C1CCN(C(=O)C2CCC2)CC1)c1cc(Cl)cc(Cl)c1F [Compound I-436]	50 to 100 µM	> 100 µM
O=C(NNS(=O)(=O)C1CCOCC1)c1cc(Cn2ccnc2)cc(Cl)c1F [Compound I-440]	> 100 µM	> 100 µM
Cn1cnc2cc(-c3ccccc3)cc(C(=O)NNS(=O)(=O)C3CCCCC3)c21 [Compound I-441]	> 100 µM	> 100 µM
CN1CCN(Cc2cc(Cl)c(F)c(C(=O)NNS(=O)(=O)C3CCOCC3)c2)CC1 [Compound I-442]	> 100 µM	> 100 µM
Cc1cc(-c2cccc(C(=O)O)c2)cc(C(=O)NNS(=O)(=O)C2CCCCC2)c1F [Compound I-444]	≤ 10 µM	≤ 10 µM
COCCNC(=O)c1cccc(-c2cc(C)c(F)c(C(=O)NNS(=O)(=O)C3CCCCC3)c2)c1 [Compound I-445]	10 to 50 µM	> 100 µM
Cc1cc(-c2cccc(C(=O)OCc3ccccc3)c2)cc(C(=O)NNS(=O)(=O)CC2CCCCC2)c1F [Compound I-446]	10 to 50 µM	50 to 100 µM
COCCNC(=O)c1cccc(-c2cc(C)c(F)c(C(=O)NNS(=O)(=O)CC3CCCCC3)c2)c1 [Compound I-447]	≤ 10 µM	10 to 50 µM
O=C(NNS(=O)(=O)C1CCOCC1)c1cc(CN2CCOCC2)cc(Cl)c1F [Compound I-448]	> 100 µM	> 100 µM
Cc1cc(-c2cccc(C(=O)OCc3ccccc3)c2)cc(C(=O)NNS(=O)(=O)c2ccccc2)c1F [Compound I-449]	50 to 100 µM	50 to 100 µM
Cc1cccc(-c2ncc(C(=O)Nc3ccccc3)[nH]2)c1F [Compound I-450]	≤ 10 µM	≤ 10 µM
COCc1cc(Cl)c(F)c(C(=O)NNS(=O)(=O)C2CCCCC2)c1 [Compound I-451]	≤ 10 µM	10 to 50 µM

SMILES	IC50 (KAT5)	IC50 (KAT6A)
COCc1cc(Cl)c(F)c(C(=O)NNS(=O)(=O)CC2CCOCC2)c1 [Compound I-452]	≤ 10 µM	≤ 10 µM
COCc1cc(Cl)c(F)c(C(=O)NNS(=O)(=O)C2CCOCC2)c1 [Compound I-453]	> 100 µM	> 100 µM
O=C(NNS(=O)(=O)C1CCOCC1)c1cc(CN2CCCCC2)cc(Cl)c1F [Compound I-454]	50 to 100 µM	10 to 50 µM
O=C(NNS(=O)(=O)C1CCCCC1)c1cc(CO)cc(Cl)c1F [Compound I-456]	> 100 µM	> 100 µM
O=C(NNS(=O)(=O)CC1CCCCC1)c1cc(CO)cc(Cl)c1F [Compound I-457]	≤ 10 µM	≤ 10 µM
O=C(NNS(=O)(=O)C1CCOCC1)c1cc(-c2ccc(O)cc2)cc(Cl)c1F [Compound I-459]	> 100 µM	≤ 10 µM
O=C(NNS(=O)(=O)C1CCCCC1)c1c(Cl)ccc(Cl)c1F [Compound I-461]	> 100 µM	> 100 µM
Cc1cc(C(C)(C)C)cc(C(=O)NNS(=O)(=O)c2ccccc2)c1O [Compound I-462]	> 100 µM	> 100 µM
O=C(NNS(=O)(=O)C1CCCCC1)c1c(F)c(-c2ccccc2)cc2nc[nH]c12 [Compound I-467]	> 100 µM	> 100 µM
Cn1cnc2c(C(=O)NNS(=O)(=O)C3CCCCC3)c(F)c(-c3ccccc3)cc21 [Compound I-468]	> 100 µM	> 100 µM
Cc1nn(C)c(C(=O)NNS(=O)(=O)C2CCCCC2)c1F [Compound I-469]	> 100 µM	> 100 µM
O=C(NC1CCC1)c1cc(Cl)c(F)c(C(=O)NNS(=O)(=O)C2CCCCC2)c1 [Compound I-473]	> 100 µM	> 100 µM
Cc1c(F)c(C(=O)NNS(=O)(=O)C2CCCCC2)nn1C [Compound I-475]	> 100 µM	> 100 µM
Cc1cc(-c2ccccc2)cc(C(=O)NNCC(F)(F)F)c1F [Compound I-476]	> 100 µM	> 100 µM
Cn1cc(-c2ccc(F)c(Cl)c2)nc1C(=O)NNS(=O)(=O)CC1CCOCC1 [Compound I-478]	> 100 µM	> 100 µM
O=C(NNS(=O)(=O)C1CCOCC1)c1cc(-c2cccc(CO)c2)cc(Cl)c1F [Compound I-482]	10 to 50 µM	10 to 50 µM
Cc1cc(-c2ccccc2)nc(C(=O)NNS(=O)(=O)C2CCCCC2)c1F [Compound I-483]	50 to 100 µM	> 100 µM
COc1cc(F)cc(-c2cc(Cl)c(F)c(C(=O)NNS(=O)(=O)C3CCCCC3)c2)c1 [Compound I-486]	10 to 50 µM	10 to 50 µM
CNC(=O)Cn1nc(C(=O)NNS(=O)(=O)C2CCCCC2)c(F)c1C [Compound I-489]	> 100 µM	> 100 µM

The next lines start with the values.

IC50 (KAT5)	IC50 (KAT6A)	SMILES
≤ 10 µM	≤ 10 µM	CC(=O)N1CCOC(CS(=O)(=O)NNC(=O)c2cc(-c3ccccc3)cc(C)c2F)C1 (stereo not drawn) [Compound I-427]
10 to 50 µM	≤ 10 µM	Cc1cc(-c2cccc(F)c2)cc(C(=O)NNS(=O)(=O)CC2CNCCO2)c1F (stereo not drawn) [Compound I-428]
≤ 10 µM	≤ 10 µM	CC(=O)N1CCOC(CS(=O)(=O)NNC(=O)c2cc(-c3cccc(F)c3)cc(C)c2F)C1 (stereo not drawn) [Compound I-429]
10 to 50 µM	10 to 50 µM	Cc1cc(-c2cccc(F)c2)cc(C(=O)NNS(=O)(=O)CC2CCN(C(=O)CCN(C)C)CC2)c1F [Compound I-432]
≤ 10 µM	≤ 10 µM	COCc1cc(Cl)c(F)c(C(=O)NNS(=O)(=O)CC2CCCCC2)c1 [Compound I-437]
10 to 50 µM	10 to 50 µM	Cc1cc(-c2cccc(F)c2)cc(C(=O)NNS(=O)(=O)C2CCOC2)c1F (stereo not drawn) [Compound I-438]
> 100 µM	> 100 µM	O=C(NNS(=O)(=O)C1CCOCC1)c1cc(C(=O)N2CCOCC2)cc(Cl)c1F [Compound I-439]
≤ 10 µM	≤ 10 µM	Cc1cc(-c2cccc(C(=O)OCc3ccccc3)c2)cc(C(=O)NNS(=O)(=O)C2CCOCC2)c1F [Compound I-443]
10 to 50 µM	> 100 µM	Nc1ccc(-c2cc(Cl)c(F)c(C(=O)NNS(=O)(=O)C3CCOCC3)c2)cc1 [Compound I-455]
> 100 µM	> 100 µM	CNC(=O)c1cccc(-c2cc(C)c(F)c(C(=O)NNS(=O)(=O)C3CCCCC3)c2)c1 [Compound I-458]
≤ 10 µM	10 to 50 µM	O=C(NNS(=O)(=O)C1CCCCC1)c1cc(-c2ccc(O)cc2)cc(Cl)c1F [Compound I-460]
≤ 10 µM	> 100 µM	Nc1ccc(-c2cc(Cl)c(F)c(C(=O)NNS(=O)(=O)C3CCCCC3)c2)cc1 [Compound I-463]
> 100 µM	> 100 µM	O=C(NNS(=O)(=O)C1CCOCC1)c1cc(Cn2cccn2)cc(Cl)c1F [Compound I-464]
> 100 µM	50 to 100 µM	O=C(NNS(=O)(=O)C1CCOCC1)c1cc(CO)cc(Cl)c1F [Compound I-465]
10 to 50 µM	10 to 50 µM	O=C(NNS(=O)(=O)CC1CCOCC1)c1cc(CO)cc(Cl)c1F [Compound I-466]
50 to 100 µM	> 100 µM	O=C(NCCO)c1cc(Cl)c(F)c(C(=O)NNS(=O)(=O)C2CCCCC2)c1 [Compound I-470]
> 100 µM	> 100 µM	COCCN(C)C(=O)c1cc(Cl)c(F)c(C(=O)NNS(=O)(=O)C2CCOCC2)c1 [Compound I-471]
> 100 µM	> 100 µM	CCNC(=O)c1cc(Cl)c(F)c(C(=O)NNS(=O)(=O)C2CCCCC2)c1 [Compound I-472]
> 100 µM	> 100 µM	CNC(=O)CCNC(=O)c1cc(Cl)c(F)c(C(=O)NNS(=O)(=O)C2CCCCC2)c1 [Compound I-474]
> 100 µM	> 100 µM	COCCNC(=O)c1cccc(-c2cc(C)c(F)c(C(=O)N(N)S(=O)(=O)c3ccccc3)c2)c1 [Compound I-477]
> 100 µM	50 to 100 µM	O=C(NNS(=O)(=O)C1CCCCC1)c1nc(-c2ccccc2)cc(Cl)c1F [Compound I-479]
> 100 µM	> 100 µM	O=C(NCCO)c1cc(Cl)c(F)c(C(=O)NNS(=O)(=O)C2CCOCC2)c1 [Compound I-480]
> 100 µM	> 100 µM	CNC(=O)Cn1nc(C(=O)NNS(=O)(=O)C2CCCCC2)cc1C [Compound I-481]
10 to 50 µM	10 to 50 µM	Cc1cc(F)cc(-c2cc(Cl)c(F)c(C(=O)NNS(=O)(=O)C3CCCCC3)c2)c1 [Compound I-484]
≤ 10 µM	10 to 50 µM	O=C(NNS(=O)(=O)C1CCCCC1)c1cc(-c2cccc(CO)c2)cc(Cl)c1F [Compound I-485]
10 to 50 µM	10 to 50 µM	O=C(NNS(=O)(=O)C1CCCCC1)c1cc(-c2cc(Cl)cc(Cl)c2)cc(Cl)c1F [Compound I-487]
> 100 µM	> 100 µM	O=C(NC1CCC1)c1cc(Cl)c(F)c(C(=O)NNS(=O)(=O)C2CCOCC2)c1 [Compound I-488]
50 to 100 µM	10 to 50 µM	O=C(NNS(=O)(=O)C1CCCCC1)c1cc(-c2cc(F)cc(Cl)c2)cc(Cl)c1F [Compound I-490]

Source: US20220267260A1, “COMPOUNDS CONTAINING A SULFONIC GROUP AS KAT INHIBITORS” (Epizyme, Inc., priority 2016, published 2022)
